For 89 compounds, melting point results are on record in a melting point compilation (Tetko et al.; mined from patent text by program, amines drawn as free bases though some values may be those of a salt).

Compound `CC(C)(C)OC(=O)NCc1ccc(C(=O)Nc2ccccc2N)cc1` showed a melting point of 160 to 162 °C.

On to `O=C(O)c1cn(C2CC2)c2c(F)c(N3CCC(N=Cc4ccc(Cl)cc4)C3)c(F)cc2c1=O` (centres undefined), for which the melting point lay within 232 to 237 °C.

With `O=C1NCCc2c1cc1n2CCCC1`, the melting point lay in the range of 195 to 197 °C. To `C=CCc1c(OC(C)=O)c2cccnc2n(-c2ccccc2)c1=O` belongs 189 to 195 °C; to `CCOc1cc2ncc(C#N)c(Nc3ccc(F)cc3)c2cc1OCC`, 177 to 181 °C. In turn, `CCC(C)NC(=O)Nc1ccccc1C(=O)OC` (centres undefined) came in with a melting point of 124 °C. In turn, `Cc1ccc2c(O)cnnc2c1` had a melting point of 114 to 115 °C. For the compound `COC(=O)c1ccccc1S(=O)(=O)NC(=O)Nc1n[nH]c(SC)n1`, the melting point is 147 to 153 °C. Regarding `Nc1nc(Oc2ccc(C(F)(F)F)cc2Cl)ccc1[N+](=O)[O-]`, the melting point lay within 80 to 84 °C. Compound `Fc1cccc(Cl)c1[C@@H]1C[C@H](c2ccc(Cl)cc2)Nc2ncnn21` (relative stereo) came in with a melting point of 227 to 228 °C. In the case of `CCc1cccc(C)c1CNc1cc(OC)nc2c1nc(C)n2C`, the melting point is 165 to 166 °C. The compound `Cc1ccc(C)c(OCCCC(C)(C)C(=O)Nc2ccc(F)cc2F)c1` returned a melting point of 79 to 80 °C. Compound `COC(=O)CCCNC(=O)CNS(=O)(=O)c1ccc2ccccc2c1` displayed a melting point of 187 to 189 °C. For `CCCN(CCC)C(=O)Cc1ccccc1Nc1c(Cl)cccc1Cl`, the melting point lay in the range of 84 to 86 °C. For the compound `S=c1[nH]c2ccc(Cl)cc2c2nc(-c3ccco3)nn12`, the melting point was in the range of 202 to 207 °C. As for `CCCCc1nc2cnc3ccccc3c2n1CCCCSc1ccc(F)cc1F`, the melting point is 122 to 126 °C. `COc1ccc2c(c1)CCC1C2C(O)CC2(C)C(O)CCC12` (centres undefined) registered a melting point of 161 to 162 °C.

`COc1cc2c(cc1OC)[C@@H]1CN(C)CC[C@@H]1N=C2c1ccc(NC(=O)c2ccccc2)cc1` (relative stereo): the melting point lay in the range of 240 to 245 °C.

The compound `CC1(C)NC(=O)N(c2ccc([N+](=O)[O-])c(C(F)(F)F)c2)C1=N` displayed a melting point of 168 °C. Turning to `COc1ccc2c(c1)C(c1ccncc1)Nc1cc(Cl)ccc1O2` (centres undefined), the melting point lay in the range of 186 to 188 °C. For `CCCC(c1cc(C(=O)Nc2ccccc2)ccc1OCc1ccc(Br)cc1)n1ccnc1` (centres undefined) the value was 159 to 166 °C.

With `CCCc1c(OCCCSCCO)ccc(C(C)=O)c1O`, the melting point lay within 72 to 74 °C.

As to `O=C(Cl)c1cc(Oc2ccc(Br)cc2)cc(C(=O)Cl)c1`, the melting point was 80 to 81 °C. `CCCc1nc2c(N)nc3cc(OCc4ccc(OC)cc4)ccc3c2n1CC(C)C` showed a melting point of 186 to 188 °C. Regarding `CCCN(C(=O)C(F)(F)F)c1ccc(I)cc1`, the melting point was in the range of 177 to 179 °C.

For the compound `CC(=O)Nc1ccc(C#CCCN2CC=C(c3ccccc3)CC2)cc1`, the melting point lay within 172 to 173 °C. `COc1ccc(-n2nc(Sc3ccc(S(C)=O)cc3)c(C)c(C#N)c2=O)cc1` (centres undefined): the melting point lay in the range of 176 to 178 °C. For `C=CCn1nc(C)c(C(=O)c2ccc(Cl)cc2Cl)c1OS(=O)(=O)c1ccc(C)cc1`, the melting point was in the range of 113 to 114 °C. With `O=c1ccc(Cl)cn1[C@@H]1c2cc([N+](=O)[O-])ccc2OCC[C@H]1O` (relative stereo), the melting point fell in the range of 219 to 222 °C. As to `O=C(O)[C@H](Cc1ccc(C(F)(F)F)cc1)[C@@H](O)c1ccc(Oc2ccccc2)cc1` (racemic), the melting point lay in the range of 128 to 129 °C. Consider `Cc1cccc(NC(=O)c2cc(C(F)(F)F)nn2-c2ccccc2Cl)c1NC(=O)C(C)C`, for which the melting point lay in the range of 215 to 220 °C. As to `CC(CCC(O)C(C)(C)O)C1CCC2C3=CC=C4CC(O)CCC4(C)C3CCC21C` (centres undefined), the melting point was in the range of 216 to 218 °C.

Take `COC(=O)c1c(Cl)cc(Cl)cc1NC(=O)CSc1ccc(NC(=O)Cc2cccc(Br)c2)cc1`: the melting point is 177 to 180 °C.

Turning to `Cc1cccc(NC(=O)NC2N=C(CC(C)C)c3cccc(C)c3N(CC(=O)N3CC4CCC(CC4)C3)C2=O)c1` (centres undefined), the melting point was in the range of 134 to 135 °C.

With `O=C1c2ccccc2C(=O)N1CCc1ccc2c(c1)OCO2`, the melting point lay within 139 to 140 °C. For the compound `O=C(O)CCc1cnoc1-c1cc(Cl)c(Cl)s1`, the melting point fell in the range of 142 to 143 °C.

In turn, `CCCOc1ccccc1C1=NC(=O)C2=NC=NC2=N1` registered a melting point of 254 to 259 °C. `CC(=O)Nc1c(C(=S)c2ccc(C)cc2)[nH]c2cc(Cl)ccc12` showed a melting point of 187 to 188 °C. As for `COC(=O)CCCc1cc2nc(Cl)ccc2n1S(=O)(=O)c1ccc(OC)cc1Cl`, the melting point was 116 to 118 °C. The compound `Oc1ccc(Oc2cccc(C(F)(F)F)n2)cc1` displayed a melting point of 94 to 95 °C. On to `O=C1CN=C(c2ccccc2Br)c2cc(F)ccc2N1`, for which the melting point was 194 to 196 °C. The compound `CC(=O)NC1Cc2ccc(O)cc2C1` (centres undefined) showed a melting point of 123 to 126 °C.

Regarding `CCOC(=O)N[C@@H]1Cc2ccccc2[C@H]1Cl` (relative stereo), the melting point lay within 82 to 84 °C.

`CCOC(=O)/C(=N\OCCN=[N+]=[N-])c1csc(N)n1` came in with a melting point of 123 to 124 °C. For `Cc1nn(-c2c(Cl)cc(C(F)(F)F)cc2Cl)nc1C=NC(C#N)=C(N)C#N` the value was 238 to 239 °C; for `OC1CSC(Oc2ccccc2-c2cccnc2)C(O)C1O` (centres undefined), 195 °C; for `CCCCCCCCCCCCCC(=O)Nc1ccc(Cl)c(NC2=NN(c3c(Cl)cc(Cl)cc3Cl)C(=O)C2n2ccnc2)c1` (centres undefined), 172 to 174 °C. Take `CC(=O)CCc1nc2c(N)nc3ccccc3c2n1CC(C)(C)O`: the melting point lay in the range of 181 to 184 °C. As to `Nc1ccccc1NC(=O)c1ccc(NC(=O)CO)cc1`, the melting point lay within 221 to 223 °C. Turning to `CCOC(=O)c1noc(-c2ccc(Cl)cc2)n1`, the melting point was 88 to 89 °C. In the case of `Cc1nccn1CC1CCC(Nc2ccccc2I)=CC1=O` (centres undefined), the melting point was in the range of 88 to 100 °C.

`COC(=O)Cc1cc(Cl)ccc1O`: the melting point was 84 to 85 °C. Turning to `Cc1nnc2ccc(-c3ccc(Cl)c(C(F)(F)F)c3)nn12`, the melting point lay in the range of 267 to 269 °C. For `CC(C)(C)COc1cccc(C[C@@H](NC(=O)c2cccc3c(Cl)cccc23)[C@@H](O)c2cccc(Cl)c2)c1` (racemic) the value was 142 to 143 °C; for `O=C(NNC(=O)c1ccnc2[nH]ccc12)OCc1ccccc1`, 203 to 204 °C. Compound `C=CCOC(=O)c1ccc(CC(=O)Nc2ccc3c(c2)C(C)(C)CCC3(C)C)cc1` yielded a melting point of 49 to 50 °C. To `O=C(O)c1cc(NC(=O)C(CS)Cc2ccccc2)ccc1N1CCCC1` (centres undefined) belongs 196 to 198 °C; to `CC(=O)NNC(=S)N1N=C(c2ccc([N+](=O)[O-])cc2)c2cc3c(cc2CC1C)OCO3` (centres undefined), 118 °C; to `CCCN1CCc2c(ccc3[nH]c(=O)c(=O)[nH]c23)C1`, 340 to 350 °C. In turn, `CC1(C)CC(OC(=O)c2ccccc2)CC(C)(C)N1OC(N)=O` registered a melting point of 148 to 149 °C. For `O=C(N[C@H](Cc1ccc(C(F)(F)F)cc1)[C@H](O)c1ccc(F)cc1)c1cccc2ccccc12` (racemic) the value was 134 to 135 °C; for `O=S(=O)(CCl)c1ccc(O)cc1`, 110 °C; for `COc1cc2c(cc1Br)-c1c(-c3cccs3)c3c(n1CC2)C(=O)N(C(C)(C)C)CCC3`, 232 to 233 °C.

`Cc1cn(C(C)C(=O)N(C)C)nc1-c1ccc(Cl)cc1` (centres undefined) came in with a melting point of 99.5 to 101 °C.

For `Cc1scc(C2=NOCCO2)c1S(=O)(=O)NC(=O)n1nc(OC(C)C)n(C)c1=O`, the melting point was 199 °C. In the case of `C#CCS(=O)(=O)c1cccc([N+](=O)[O-])c1`, the melting point was in the range of 250 to 255 °C.

As to `COc1ccc2c(c1)[C@H](c1ccccc1)CN(C)CC2`, the melting point is 50 to 51 °C. For the compound `Cc1ccc(S(=O)(=O)O[C@@H]2CCCN(S(=O)(=O)c3ccc(C)cc3)C2)cc1`, the melting point was in the range of 140 to 147 °C. The compound `CCOC(=O)N1CCC(n2c(=O)n(C)c3cc(Cl)ccc32)CC1` had a melting point of 122 °C. With `Fc1ccc(C2OC3(CCN(Cc4ccccc4)CC3)N3CCCCC23)cc1` (centres undefined), the melting point was 158 to 159 °C. With `O=c1cc(NCCN2CCN(c3ncccn3)CC2)cn[nH]1`, the melting point was 199 to 201 °C. `Cc1cc(C(O)(C(F)(F)F)C(F)(F)F)ccc1O` registered a melting point of 89.5 to 90.5 °C.

For `NC(=O)c1nccn1C1Cc2cc(Cl)ccc2C1=O` (centres undefined), the melting point was 240 °C. `Cc1[nH][nH]c(=O)c1Cc1ccc2ccccc2c1` had a melting point of 240 to 244 °C. Compound `CCc1nnc(-c2ccc(N(C)C)c(C)c2)n1-c1ccc(OC)cc1` showed a melting point of 131 °C. In the case of `CC(=O)Nc1cccc2c1C(=O)c1c-2n[nH]c1-c1ccc(C(F)(F)F)cc1`, the melting point was > 300 °C.

Compound `CNC(=O)Oc1cccc(NC(=O)CC(C)(OC)OC)c1` yielded a melting point of 139 °C.

Regarding `Clc1ccc(N2CCN(Cc3n[nH]c4c(Cl)cccc34)CC2)nc1`, the melting point was in the range of 150 to 152 °C. Regarding `CCOc1nc(N(C)C)nc(=O)[nH]1`, the melting point was in the range of 215 to 216 °C. In turn, `COC(=O)c1ccc(S(C)(=O)=O)c(C=NO)c1Cl` had a melting point of 126 to 128 °C.

As for `COc1cc(C2(OC)CCOCC2)ccc1OCc1ccc2c(ccc(=O)n2C)c1`, the melting point lay in the range of 172 to 173 °C. In turn, `CCCCCCCCCCCCCCCC(CC)C1OC(=O)C(O)=C1O` (centres undefined) displayed a melting point of 114 to 117 °C. Turning to `COCCOC[C@H](CC1(C(=O)O)CCCC1)C(=O)OC(C)(C)C`, the melting point was in the range of 86 to 87 °C.

In turn, `CN(CCCCCCCNC(=NCCCOc1cccc(CN2CCCCC2)c1)NC#N)CCN(Cc1ccc(F)cc1)c1ccccn1` displayed a melting point of 96 to 98 °C. With `CCCCc1ncc(/C=C(\Cc2cccs2)C(N)=O)n1Cc1ccc(C(N)=O)cc1`, the melting point fell in the range of 204 to 206 °C. In turn, `CCOC(=O)Nc1ccc(OC(=O)NC)cc1C` returned a melting point of 153 to 155 °C.

The compound `CCc1csc2c(C(=O)O)c(=O)c3cc(F)c(N4CCNCC4)cc3n12` came in with a melting point of 247 to 251 °C. Turning to `CCc1nc2c(N)nc(C)c(C)c2n1CCCC(=O)N1CCOCC1`, the melting point was 209 to 210 °C. For `CC(C)(C)c1cccc(S(=O)(=O)n2c(Cc3ccc(C(=O)O)cc3)cc3ccc(C(F)(F)F)cc32)c1`, the melting point worked out at 199 °C.

By melting point is commonly meant the temperature, or range, at which the solid turns liquid.
